Columns and labels:
Format in all cases: in vivo
[1] = test system: ragweed (common ragweed, Ambrosia elatior); assay: Test A postemergence; conditions: Ambrosia artemisiifolia, post-emergence, 240 h, postemergence, read-out: Ragweed plant response rating
How it was run: (§1)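 Each rating is a visual injury score from 0 to 100 given about 10 d after treatment, judged against untreated controls kept alongside in the greenhouse. In loam soil–sand blend, seeds got a preemergence directed soil spray, while postemergence plants were 2 to 10 cm tall at spraying.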

[2] = test system: barnyardgrass (Echinochloa crus-galli); assay: Test A postemergence; conditions: Echinochloa crus-galli, post-emergence, 240 h, postemergence, read-out: Barnyardgrass plant response rating
How it was run: as §1

[3] = test system: ryegrass, Italian (Italian ryegrass, Lolium multiflorum); assay: Test A postemergence; conditions: Lolium multiflorum, post-emergence, 240 h, postemergence, read-out: Ryegrass, Italian plant response rating
How it was run: as §1

[4] = test system: blackgrass (Alopecurus myosuroides); assay: Test A postemergence; conditions: Alopecurus myosuroides, post-emergence, 240 h, postemergence, read-out: Blackgrass plant response rating
How it was run: as §1

Kochia (Kochia scoparia) [5] = assay: Test A postemergence; conditions: Bassia scoparia, post-emergence, 240 h, postemergence, read-out: Kochia plant response rating
How it was run: as §1

[6] = test system: giant foxtail (Setaria faberii); assay: Test A postemergence; conditions: Setaria faberi, post-emergence, 240 h, postemergence, read-out: Foxtail, Giant plant response rating
How it was run: as §1

[7] = test system: wheat (Triticum aestivum); assay: Test A postemergence; conditions: Triticum aestivum, post-emergence, 240 h, postemergence, read-out: Wheat plant response rating
How it was run: as §1

[8] = test system: pigweed (Amaranthus retroflexus); assay: Test A postemergence; conditions: Amaranthus retroflexus, post-emergence, 240 h, postemergence, read-out: Pigweed plant response rating
How it was run: as §1

corn (Zea mays) = assay: Test A postemergence; conditions: Zea mays, post-emergence, 240 h, postemergence, read-out: Corn plant response rating
How it was run: as §1

[9] = test system: ragweed (common ragweed, Ambrosia elatior); assay: Test A preemergence; conditions: Ambrosia artemisiifolia, pre-emergence, 240 h, preemergence, read-out: Ragweed plant response rating
How it was run: as §1

[10] = test system: barnyardgrass (Echinochloa crus-galli); assay: Test A preemergence; conditions: Echinochloa crus-galli, pre-emergence, 240 h, preemergence, read-out: Barnyardgrass plant response rating
How it was run: as §1

[11] = test system: ryegrass, Italian (Italian ryegrass, Lolium multiflorum); assay: Test A preemergence; conditions: Lolium multiflorum, pre-emergence, 240 h, preemergence, read-out: Ryegrass, Italian plant response rating
How it was run: as §1

Kochia (Kochia scoparia) [12] = assay: Test A preemergence; conditions: Bassia scoparia, pre-emergence, 240 h, preemergence, read-out: Kochia plant response rating
How it was run: as §1

[13] = test system: giant foxtail (Setaria faberii); assay: Test A preemergence; conditions: Setaria faberi, pre-emergence, 240 h, preemergence, read-out: Foxtail, Giant plant response rating
How it was run: as §1

[14] = test system: pigweed (Amaranthus retroflexus); assay: Test A preemergence; conditions: Amaranthus retroflexus, pre-emergence, 240 h, preemergence, read-out: Pigweed plant response rating
[15] = 125 g ai/ha, visual injury on 0 to 100 scale (0 no effect, 100 complete control), approx. 10 d
[16] = 500 g ai/ha, 0 to 100 scale, 0 is no effect, 100 is complete control
[17] = 125 g ai/ha, 0 to 100 scale where 0 is no effect and 100 is complete control, approx. 10 d
[18] = 500 g ai/ha, visual injury rating about 10 d after treatment, 0 to 100 scale (0 no effect, 100 complete control)

Cc1ccc([C@H]2CNC(=O)[C@]2(Br)C(=O)Nc2cccc(F)c2F)cc1F (racemic) [Compound 1073]
pest or weed control at 125 g/ha [1, 15]: 30%
pest or weed control at 500 g/ha [1, 16]: 30%
pest or weed control at 125 g/ha [2, 15]: 70%
pest or weed control at 500 g/ha [2, 16]: 90%
pest or weed control at 125 g/ha [3, 15]: 0%
pest or weed control at 500 g/ha [3, 16]: 40%
pest or weed control at 125 g/ha [4, 15]: 0%
pest or weed control at 500 g/ha [4, 16]: 30%
pest or weed control at 125 g/ha (Kochia (Kochia scoparia) [5]; [15]): 0%
pest or weed control at 500 g/ha (Kochia (Kochia scoparia) [5]; [16]): 40%
pest or weed control at 125 g/ha [6, 15]: 0%
pest or weed control at 500 g/ha [6, 16]: 40%
plant injury at 125 g/ha [7, 15]: 0%
plant injury at 500 g/ha [7, 16]: 30%
pest or weed control at 125 g/ha [8, 15]: 0%
pest or weed control at 500 g/ha [8, 16]: 20%
plant injury at 125 g/ha (corn (Zea mays); [15]): 20%
plant injury at 500 g/ha (corn (Zea mays); [16]): 50%
pest or weed control at 125 g/ha [9, 17]: 10%
pest or weed control at 500 g/ha [9, 18]: 30%
pest or weed control at 125 g/ha [10, 17]: 100%
pest or weed control at 500 g/ha [10, 18]: 100%
pest or weed control at 125 g/ha [11, 17]: 0%
pest or weed control at 500 g/ha [11, 18]: 20%
pest or weed control at 125 g/ha (Kochia (Kochia scoparia) [12]; [17]): 0%
pest or weed control at 500 g/ha (Kochia (Kochia scoparia) [12]; [18]): 70%
pest or weed control at 125 g/ha [13, 17]: 100%
pest or weed control at 500 g/ha [13, 18]: 100%
pest or weed control at 125 g/ha [14, 17]: 100%
pest or weed control at 500 g/ha [14, 18]: 100%

Reference: patent publication US12077503B2, “Substituted cyclic amides and their use as herbicides” (FMC CORPORATION, priority 2015, dated 2024)
